Reference: patent US10112918B2, “15-oxospiramilactone derivatives, preparation method and uses thereof” (Kunming Institute of Botany, The Chinese Academy of Sciences, priority 2013, dated 2018)
Read-outs that look alike come from different tables or passages of the source.

Test system: SW-480 (human colon cancer cells)
Assay: MTT inhibition of tumor cell growth, SW-480
Type: cell-based
Conditions: Homo sapiens, SW480, 48 h
How it was run: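 Cells were seeded at 5000-10000 per well in DMEM or RPMI1640 with 10% FBS, adherent lines pre-cultured 12 h. Compounds were tested at 40 μM, with 5-concentration re-screening for those near 50% inhibition, in triplicate for 48 h at 37° C; MTT/SDS absorbance at 595 nm gave IC50 by Reed-Muench.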

IC50 (Table 1, 7-hydroxy derivatives of S-3, read-out: IC50 SW-480): 3.58 µM
IC50 (Table 2, derivatives having potential Michael reaction acceptor, read-out: IC50 SW-480): 3.58 µM
IC50 (Table 3, single Michael reaction acceptor, modified lactonic ring, read-out: IC50 SW-480): 3.58 µM
IC50 (Table 4, derivatives obtained by reduction of the lactonic ring, read-out: IC50 SW-480): 3.58 µM
IC50 (Table 5, derivatives having double Michael reaction acceptor, read-out: IC50 SW-480): 3.58 µM
IC50 (Table 6, 7-hydroxyl derivatives and controls, read-out: IC50 SW-480, 7-hydroxyl derivatives): 2.99 µM
IC50 (Table 7 (first), alkaloid derivatives, read-out: IC50 SW-480): 3.58 µM
SMILES: C=C1C(=O)[C@]23CC[C@H]1CC2[C@@]12CCC[C@@](C)(COC1=O)C2C[C@H]3O (stereo partly shown) [Compound 1, 15-oxospiramilactone]
